Assay results published in US8410068B2, “Compounds for the treatment or alleviation of edema, and methods for their use” (Index Pharmaceuticals AB, priority 2007, dated 2013).
Values joined by “and” are separate entries in the source; they are usually repeats but may differ in a detail not shown here. Equal entries are not always repeated.

Key:
[1] = system: OVA induced airway inflammation; assay: Ovalbumin (OVA) induced allergic airway inflammation, BAL fluid cell counts; format: in vivo, Balb/c mice
Experimental: Mice were sensitized intraperitoneally with 200 μL OVA/aluminium hydroxide gel (1:3) on day 0 and 12 (see FIG. 6). OVA (chicken egg albumin grade V, Sigma, St. Louis, Mo.) was dissolved in saline and mixed with aluminium hydroxide gel to a concentration of 50 μg/mL by rotation at 4° C. for 3 h. On days 23, 26, 30 and 33 (see FIG. 6), mice were challenged in the lungs by inhalation of aerosolized OVA for 30 minutes using a Batelle exposure chamber. Aerosols were generated by a compressed-air nebulizer (Collison 6-jet) at airflow 7.4 L/min using a nebulizer concentration of 10 mg/mL OVA dissolved in PBS (Sigma, St Louis, Mo., USA). The control group with non-sensitized animals received no other treatment than aerosolized OVA at days 23, 26, 30 and 33.
In this OVA model (FIG. 6), a total of 4 oligonucleotides were tested, IDX9025, IDX9038, IDX9053 (Table 1, SEQ ID NO 2-4) and IDX0150 (Table 3, SEQ ID NO 11). The oligonucleotides were synthesized by biomers.net GmbH, Ulm, Germany and stored frozen at −20° C. The oligonucleotides were diluted with PBS to the working concentration (1,247 μg/μL) and kept at −20° C. until the first day of instillation, thereafter they were placed at 4° C.
In a first experiment, both prophylactic and therapeutic protocols were tested (see FIG. 6). The drug treatment consisted of intranasal instillations of IDX0150 (1,247 μg/μL, provided by InDex Pharmaceuticals AB, Stockholm, Sweden) on days 16 and 21 (prophylactic protocol), on days 30 and 33 (therapeutic protocol A) or on days 30 and 34 (therapeutic protocol B). The instillations in the therapeutic protocols (A & B) on days 30 and 33 were given 4 h after aerosol challenge. The second instillation in protocol B on day 34 was given 24 h after the last aerosol challenge. The drug was administered in 40 μL PBS giving a dose of ˜50 μg/mice (49.88 μg/mice). The two sensitized sham-treatment groups were instilled with PBS, the same total volume as for the treatment groups, according to either the prophylactic protocol (days 16 and 21) or to the therapeutic protocol A (days 30 and 33).
In a second experiment, since administration of IDX0150 in the first experiment using prophylactic protocol (FIG. 6) gave a significant reduction of airway inflammation (FIG. 7), three other substances were tested with the same protocol. The drug treatment consisted of intranasal instillations of IDX9025, IDX9038 and IDX9053 (Table 1) (1,247 μg/μL, provided by InDex Pharmaceuticals AB) on days 16 and 21 (see FIG. 6, prophylactic protocol). All substances were administered in 40 μL PBS giving a dose of ˜50 μg/mice (49.88 μg/mice). The two sensitized sham-treatment groups were instilled with PBS, the same total volume as for the treatment groups, according to the prophylactic protocol (days 16 and 21).
Mice were killed by cervical dislocation 42 h after the last OVA aerosol challenge. The trachea was cannulated with polyethylene tubing (Becton Dickinson, Sparks, Md., USA) and bronchoalveolar lavage (BAL) was performed using 4×1 mL aliquots of ice-cold Hank's balanced salt solution (HBSS) (Sigma, St Louis, Mo., USA). The BAL fluid was centrifuged (400 g, 10 min, 4° C.) and the BAL fluid cells were resuspended in 0.4 mL PBS. The total number of leukocytes counted using tryphan blue exclusion in a Barker chamber. Duplicate Cytospin (Cytospin 3, Shandon, Runcorn, UK) preparations of BAL fluid cells were stained with May Grünewald Giemsa for differential counts, using standard morphological criteria.
Statistical comparisons were performed using One-way analysis of variance (ANOVA) using Dunnett's post hoc correction to compare with sensitized PBS treated control mice (GraphPad Prism 3). Data are shown as mean±standard deviation. P<0.05 was considered significant.

[2] = system: thioglycolate induced pleurisy; assay: Thioglycolate induced pleurisy; format: in vivo, C57/Bl6 mice; details: 50 μg/mouse i.p. 20 min before induction of pleurisy
Experimental: Mice were anesthetized by an intraperitoneal injection of 0.15-0.20 ml of a mixture of ketamine (Ketalar® Parke-Davis; 25 mg/ml) and xylazine (Narcoxyl Vet.® Veterinaria AG; 5 mg/ml).
The left jugular vein was cannulated with polyethylene tubing (PE10) for intravenous administration (i.v.). A skin incision was made on the right side of the chest. Following dissection of the underlying muscle, pleurisy (inflammation of the lung sack) was induced by a single intrapleural injection of 100 μl of thioglycolate (Sigma). Sterile PBS was used as negative control.
FITC-conjugated dextran in PBS (100 μl, 30 mg/ml) was injected i.v. After 4 h, the animals were euthanized with an overdose of anaesthesia, the chest was carefully opened and the exudate was removed by aspiration and the volume noted. The thorax was then rinsed with 1 ml of ice-cold 3 mM EDTA in PBS. Exudate which was contaminated with red blood cells was discarded.
The exudate and rinsed material was centrifuged at 1500 g for 5 min and the supernatant was used for measurement of fluorescence intensity in a fluorometer (Fluoroskan Acsent, LabSystems) and clearance volume of FITC-dextran was calculated. […]
Cells from the exudate were stained with neutrophil and macrophage specific antibodies and were analyzed by flow cytometry (FACSort and CellQuest software, BD). […]

With “G*G*A*ACAGTTCGTCCAT*G*G*C (phosphorothioate linkages, as printed in the source, key not given here) [IDX0150, oligonucleotide used as control; * = phosphorothioate modification]” the “migration of eosinophils into the BAL fluid” value ([1]; prophylactic protocol, 50 μg/animal intranasal on day 16 and 21, P<0.001) was “significantly reduce”, the “migration of leukocytes into the BAL fluid” value ([1]; prophylactic protocol, 50 μg/animal intranasal on day 16 and 21, P<0.05) was “significantly reduce” and the “effect on BAL fluid cells, therapeutic arm” value ([1]; therapeutic protocols, 50 μg intranasal, days 30 and 33 (A) or 30 and 34 (B)) was “no statistically proven effects”. The “reduction of number of PMN in pleural exudates” value ([2]; compared to inflamed mice (PBS)) was 42% and 40.9% and the “reduction in clearance volume of pleural edema (vascular permeability)” value ([2]; compared to thioglycolate treatment) was 68.2% and 69.2%.
